Numbers after ± are expanded uncertainties.
How the values were obtained:
[1] = excess molar enthalpy (molar enthalpy of mixing); xn = mol fraction of the nth substance listed; details: 298.15 K, 101 kPa, Liquid, Flow calorimetry
[2] = refractive index (Na D-line) (dimensionless); xn = mol fraction of the nth substance listed; details: 298.15 K, 101 kPa, Liquid, refractometer
[3] = heat capacity at constant pressure per volume; xn = mol fraction of the nth substance listed; details: 298.15 K, 101 kPa, Liquid, Flow calorimetry
[4] = xn = mol fraction of the nth substance listed; details: 298.15 K, 101 kPa, Liquid, Vibrating tube method
[5] = molar heat capacity at constant pressure; details: 298.15 K; 101.33 kPa; Liquid; Flow calorimetry
[6] = 298.15 K; 101.33 kPa; Liquid; Vibrating tube method
[7] = refractive index (Na D-line) (dimensionless); details: 298.15 K; 101.33 kPa; Liquid; refractometer

CCCC(C)=O [pentan-2-one] + C1CCOCC1
excess molar enthalpy ([1]; x2 = 0.1): 0.00636 ± 0.000239 kcal/mol
excess molar enthalpy ([1]; x2 = 0.15): 0.0092 ± 0.000263 kcal/mol
excess molar enthalpy ([1]; x2 = 0.2): 0.0119 ± 0.000287 kcal/mol
excess molar enthalpy ([1]; x2 = 0.25): 0.0144 ± 0.000311 kcal/mol
excess molar enthalpy ([1]; x2 = 0.3): 0.0164 ± 0.000311 kcal/mol
excess molar enthalpy ([1]; x2 = 0.35): 0.0182 ± 0.000335 kcal/mol
excess molar enthalpy ([1]; x2 = 0.4): 0.0197 ± 0.000335 kcal/mol
excess molar enthalpy ([1]; x2 = 0.45): 0.0209 ± 0.000359 kcal/mol
excess molar enthalpy ([1]; x2 = 0.5): 0.0218 ± 0.000359 kcal/mol
excess molar enthalpy ([1]; x2 = 0.55): 0.0222 ± 0.000359 kcal/mol
excess molar enthalpy ([1]; x2 = 0.6): 0.0222 ± 0.000359 kcal/mol
excess molar enthalpy ([1]; x2 = 0.65): 0.0219 ± 0.000359 kcal/mol
excess molar enthalpy ([1]; x2 = 0.7): 0.0212 ± 0.000359 kcal/mol
excess molar enthalpy ([1]; x2 = 0.75): 0.0197 ± 0.000335 kcal/mol
excess molar enthalpy ([1]; x2 = 0.8): 0.0174 ± 0.000335 kcal/mol
excess molar enthalpy ([1]; x2 = 0.85): 0.0145 ± 0.000311 kcal/mol
excess molar enthalpy ([1]; x2 = 0.9): 0.0107 ± 0.000287 kcal/mol
refractive index ([2]; x2 = 0.0811): 1.39011 ± 0.00021
refractive index ([2]; x2 = 0.1565): 1.39223 ± 0.00021
refractive index ([2]; x2 = 0.2425): 1.39468 ± 0.00021
refractive index ([2]; x2 = 0.3122): 1.39668 ± 0.00021
refractive index ([2]; x2 = 0.3557): 1.39796 ± 0.00021
refractive index ([2]; x2 = 0.4037): 1.39937 ± 0.00021
refractive index ([2]; x2 = 0.4406): 1.40047 ± 0.00021
refractive index ([2]; x2 = 0.4757): 1.40153 ± 0.00021
refractive index ([2]; x2 = 0.5107): 1.40259 ± 0.00021
refractive index ([2]; x2 = 0.5449): 1.40364 ± 0.00021
refractive index ([2]; x2 = 0.5933): 1.40514 ± 0.00021
refractive index ([2]; x2 = 0.6252): 1.40614 ± 0.00021
refractive index ([2]; x2 = 0.6681): 1.4075 ± 0.00021
refractive index ([2]; x2 = 0.708): 1.40878 ± 0.00021
refractive index ([2]; x2 = 0.7915): 1.4115 ± 0.00021
refractive index ([2]; x2 = 0.8776): 1.41439 ± 0.00021
refractive index ([2]; x2 = 0.9411): 1.41658 ± 0.00021
heat capacity ([3]; x2 = 0.0611): 1698200 ± 2600 J/K/m3
heat capacity ([3]; x2 = 0.1398): 1685200 ± 2600 J/K/m3
heat capacity ([3]; x2 = 0.2219): 1670700 ± 2600 J/K/m3
heat capacity ([3]; x2 = 0.3029): 1656100 ± 2600 J/K/m3
heat capacity ([3]; x2 = 0.3789): 1641900 ± 2500 J/K/m3
heat capacity ([3]; x2 = 0.457): 1627300 ± 2500 J/K/m3
heat capacity ([3]; x2 = 0.5376): 1611700 ± 2500 J/K/m3
heat capacity ([3]; x2 = 0.6153): 1596800 ± 2500 J/K/m3
heat capacity ([3]; x2 = 0.698): 1580600 ± 2400 J/K/m3
heat capacity ([3]; x2 = 0.7772): 1565100 ± 2400 J/K/m3
heat capacity ([3]; x2 = 0.8503): 1550300 ± 2400 J/K/m3
heat capacity ([3]; x2 = 0.9311): 1533300 ± 2400 J/K/m3
mass density ([4]; x2 = 0.0708): 806.39 ± 0.42 kg/m3
mass density ([4]; x2 = 0.1523): 812.26 ± 0.43 kg/m3
mass density ([4]; x2 = 0.2361): 818.39 ± 0.43 kg/m3
mass density ([4]; x2 = 0.3015): 823.22 ± 0.43 kg/m3
mass density ([4]; x2 = 0.3529): 827.06 ± 0.43 kg/m3
mass density ([4]; x2 = 0.3858): 829.54 ± 0.43 kg/m3
mass density ([4]; x2 = 0.4384): 833.53 ± 0.43 kg/m3
mass density ([4]; x2 = 0.4683): 835.82 ± 0.44 kg/m3
mass density ([4]; x2 = 0.5046): 838.6 ± 0.44 kg/m3
mass density ([4]; x2 = 0.5548): 842.49 ± 0.44 kg/m3
mass density ([4]; x2 = 0.5825): 844.66 ± 0.44 kg/m3
mass density ([4]; x2 = 0.6397): 849.17 ± 0.44 kg/m3
mass density ([4]; x2 = 0.6747): 851.95 ± 0.44 kg/m3
mass density ([4]; x2 = 0.7079): 854.61 ± 0.44 kg/m3
mass density ([4]; x2 = 0.7776): 860.26 ± 0.45 kg/m3
mass density ([4]; x2 = 0.8646): 867.44 ± 0.45 kg/m3
mass density ([4]; x2 = 0.9428): 874.02 ± 0.45 kg/m3

C1CCOCC1 [tetrahydropyran]
molar heat capacity at constant pressure [5]: 149.32 J/K/mol
mass density [6]: 878.91 kg/m3
refractive index [7]: 1.41865

From the NIST ThermoML archive (doi:10.1021/je025649t)
